pIC50: −log10 of the molar value.
Target: T1, human TRPA1 (Homo sapiens, UniProt O75762)
T1 construct: expressed in transfected cells; host or cells: Human embryonic kidney-derived 293T cells, transiently transfected with the pcDNA3.1/zeo(+) human TRPA1 plasmid
Experiment: Measurement of TRPA1 antagonist activity (intracellular calcium increase, FLIPR, allylisothiocyanate stimulation)
Assay type: cell-based
Settings: allylisothiocyanate 20 μM stimulation, FLIPR calcium assay; read-out: antagonism hTRPA1
How it was run: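 IC50 derives from a sigmoid fit of inhibition of the 5-min FLIPR fluorescence change evoked by 20 μM allylisothiocyanate, normalized between agonist and buffer responses. Test substance, diluted in HBSS/20 mM HEPES pH 7.2 plus 0.1% BSA, was applied 10 min beforehand at room temperature to Calcium4-loaded 293T cells transiently expressing human TRPA1.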

T1 sequence (O75762 whole entry): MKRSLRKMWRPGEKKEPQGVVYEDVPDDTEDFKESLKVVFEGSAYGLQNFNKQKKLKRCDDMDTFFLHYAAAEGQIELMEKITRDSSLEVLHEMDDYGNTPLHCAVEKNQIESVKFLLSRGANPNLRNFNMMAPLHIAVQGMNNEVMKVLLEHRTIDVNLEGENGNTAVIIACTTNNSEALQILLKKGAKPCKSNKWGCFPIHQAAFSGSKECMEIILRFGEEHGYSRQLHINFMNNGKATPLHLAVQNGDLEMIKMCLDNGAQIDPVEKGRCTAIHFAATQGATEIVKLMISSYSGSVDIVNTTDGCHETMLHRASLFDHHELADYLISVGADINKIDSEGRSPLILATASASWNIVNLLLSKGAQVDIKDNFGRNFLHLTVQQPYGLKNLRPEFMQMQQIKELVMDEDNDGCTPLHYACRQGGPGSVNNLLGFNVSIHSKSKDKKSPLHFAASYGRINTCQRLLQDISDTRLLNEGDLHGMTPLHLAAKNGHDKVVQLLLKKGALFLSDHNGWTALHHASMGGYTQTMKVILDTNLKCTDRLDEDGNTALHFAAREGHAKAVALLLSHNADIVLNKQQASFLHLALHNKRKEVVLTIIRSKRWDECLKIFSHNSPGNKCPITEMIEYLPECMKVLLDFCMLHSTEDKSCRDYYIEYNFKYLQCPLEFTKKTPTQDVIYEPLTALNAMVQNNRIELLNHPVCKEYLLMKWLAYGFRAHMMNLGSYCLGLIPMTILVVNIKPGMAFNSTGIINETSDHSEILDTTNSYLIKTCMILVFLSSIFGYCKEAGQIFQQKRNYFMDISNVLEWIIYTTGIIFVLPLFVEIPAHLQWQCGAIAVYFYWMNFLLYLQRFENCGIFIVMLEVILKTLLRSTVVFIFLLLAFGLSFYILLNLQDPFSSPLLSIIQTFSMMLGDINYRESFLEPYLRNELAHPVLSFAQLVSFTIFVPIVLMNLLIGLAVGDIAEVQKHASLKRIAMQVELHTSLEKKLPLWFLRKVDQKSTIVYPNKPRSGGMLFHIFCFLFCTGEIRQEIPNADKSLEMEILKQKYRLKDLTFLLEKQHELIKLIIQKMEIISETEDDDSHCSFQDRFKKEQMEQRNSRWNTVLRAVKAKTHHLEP

Compound	pIC50
O=C(NCc1ccc(Oc2ccnc(C(F)(F)F)c2)cc1)[C@@H]1CCCN1S(=O)(=O)c1ccsc1 [Example 156, (2S)-1-(3-thienylsulfonyl)-N-[[4-[[2-(trifluoromethyl)-4-pyridyl]oxy]phenyl]methyl]pyrrolidine-2-carboxamide]	6.00
O=C(NCc1cccc(Oc2ccc(C(F)(F)F)cc2)c1)[C@@H]1C[C@H](F)CN1S(=O)(=O)c1ccc(F)cc1 [Example 157, (2S,4S)-4-fluoro-1-(4-fluorophenyl)sulfonyl-N-[[3-[4-(trifluoromethyl)phenoxy]phenyl]methyl]pyrrolidine-2-carboxamide]	6.08
O=C(NCc1cccc(Oc2ccc(C(F)(F)F)cc2)c1)[C@@H]1CC(F)(F)CN1S(=O)(=O)c1ccc(F)cc1 [Example 159, (2S)-4,4-difluoro-1-(4-fluorophenyl)sulfonyl-N-[[3-[4-(trifluoromethyl)phenoxy]phenyl]methyl]pyrrolidine-2-carboxamide]	6.68
O=C(NCc1cccc(Oc2ccc(C(F)(F)F)cc2)c1)[C@@H]1C=CCN1S(=O)(=O)c1ccco1 [Example 160, (2S)-1-(2-furylsulfonyl)-N-[[3-[4-(trifluoromethyl)phenoxy]phenyl]methyl]-2,5-dihydropyrrole-2-carboxamide]	6.68
O=C(NCc1cccc(Oc2ccc(C(F)(F)F)cc2)c1)[C@@H]1C=CCN1S(=O)(=O)c1ccsc1 [Example 161, (2S)-1-(3-thienylsulfonyl)-N-[[3-[4-(trifluoromethyl)phenoxy]phenyl]methyl]-2,5-dihydropyrrole-2-carboxamide]	7.24
O=C(NCc1cccc(Oc2ccc(C(F)(F)F)cc2)c1)[C@@H]1CCCN1S(=O)(=O)c1ccoc1 [Example 162, (2S)-1-(3-furylsulfonyl)-N-[[3-[4-(trifluoromethyl)phenoxy]phenyl]methyl]pyrrolidine-2-carboxamide]	7.02
O=C(NCc1cccc(OCc2ccc(C(F)(F)F)cc2)c1)[C@@H]1CCCN1S(=O)(=O)c1ccc(F)cc1 [Example 163, (2S)-1-(4-fluorophenyl)sulfonyl-N-[[3-[[4-(trifluoromethyl)phenyl]methoxy]phenyl]methyl]pyrrolidine-2-carboxamide]	7.57
O=C(NCc1cccc(OCc2ccc(C(F)(F)F)cc2)c1)[C@@H]1C[C@H](F)CN1S(=O)(=O)c1ccc(F)cc1 [Example 164, (2S,4S)-4-fluoro-1-(4-fluorophenyl)sulfonyl-N-[[3-[[4-(trifluoromethyl)phenyl]methoxy]phenyl]methyl]pyrrolidine-2-carboxamide]	6.35
O=C(NCc1cccc(OCc2ccc(C(F)(F)F)cc2)c1)[C@@H]1C[C@@H](F)CN1S(=O)(=O)c1ccc(F)cc1 [Example 165, (2S,4R)-4-fluoro-1-(4-fluorophenyl)sulfonyl-N-[[3-[[4-(trifluoromethyl)phenyl]methoxy]phenyl]methyl]pyrrolidine-2-carboxamide]	6.82
O=C(NCc1cccc(OCc2ccc(C(F)(F)F)cc2)c1)[C@@H]1CC(F)(F)CN1S(=O)(=O)c1ccc(F)cc1 [Example 166, (2S)-4,4-difluoro-1-(4-fluorophenyl)sulfonyl-N-[[3-[[4-(trifluoromethyl)phenyl]methoxy]phenyl]methyl]pyrrolidine-2-carboxamide]	6.96
O=C(NCc1cccc(OCc2ccc(C(F)(F)F)cc2)c1)[C@@H]1[C@@H](O)CCN1S(=O)(=O)c1ccc(F)cc1 [Example 167, (2S,3S)-1-(4-fluorophenyl)sulfonyl-3-hydroxy-N-[[3-[[4-(trifluoromethyl)phenyl]methoxy]phenyl]methyl]pyrrolidine-2-carboxamide]	6.62
O=C(NCc1cccc(OCc2ccc(C(F)(F)F)cc2)c1)[C@@H]1[C@H](O)CCN1S(=O)(=O)c1ccc(F)cc1 [Example 168, (2S,3R)-1-(4-fluorophenyl)sulfonyl-3-hydroxy-N-[[3-[[4-(trifluoromethyl)phenyl]methoxy]phenyl]methyl]pyrrolidine-2-carboxamide]	5.66
O=C(NCc1cccc(OCc2ccc(C(F)(F)F)cc2)c1)[C@@H]1C[C@@H](O)CN1S(=O)(=O)c1ccc(F)cc1 [Example 169, (2S,4R)-1-(4-fluorophenyl)sulfonyl-4-hydroxy-N-[[3-[[4-(trifluoromethyl)phenyl]methoxy]phenyl]methyl]pyrrolidine-2-carboxamide]	6.54
O=C(NCc1cccc(OCc2ccc(C(F)(F)F)cc2)c1)[C@@H]1C[C@H](O)CN1S(=O)(=O)c1ccc(F)cc1 [Example 170, (2S,4S)-1-(4-fluorophenyl)sulfonyl-4-hydroxy-N-[[3-[[4-(trifluoromethyl)phenyl]methoxy]phenyl]methyl]pyrrolidine-2-carboxamide]	5.77
O=C(NCc1cccc(OCc2ccc(C(F)(F)F)cc2)c1)[C@@H]1[C@H]2C[C@H]2CN1S(=O)(=O)c1ccc(F)cc1 [Example 171, (1R,4S,5S)-3-(4-fluorophenyl)sulfonyl-N-[[3-[[4-(trifluoromethyl)phenyl]methoxy]phenyl]methyl]-3-azabicyclo[3.1.0]hexane-4-carboxamide]	5.72
O=C(NCc1cccc(OCc2ccc(C(F)(F)F)cc2)c1)[C@@H]1[C@@H]2C[C@@H]2CN1S(=O)(=O)c1ccc(F)cc1 [Example 172, (1S,4S,5R)-3-(4-fluorophenyl)sulfonyl-N-[[3-[[4-(trifluoromethyl)phenyl]methoxy]phenyl]methyl]-3-azabicyclo[3.1.0]hexane-4-carboxamide]	5.92
O=C(NCc1cccc(OCc2ccc(C(F)(F)F)cc2)c1)[C@@H]1C[C@H]2C[C@H]2N1S(=O)(=O)c1ccc(F)cc1 [Example 173, (1R,3S,5R)-4-(4-fluorophenyl)sulfonyl-N-[[3-[[4-(trifluoromethyl)phenyl]methoxy]phenyl]methyl]-4-azabicyclo[3.1.0]hexane-3-carboxamide]	7.00
O=C(NCc1cccc(OCc2ccc(C(F)(F)F)cc2)c1)[C@@H]1C[C@@H]2C[C@@H]2N1S(=O)(=O)c1ccc(F)cc1 [Example 174, (1S,3S,5S)-4-(4-fluorophenyl)sulfonyl-N-[[3-[[4-(trifluoromethyl)phenyl]methoxy]phenyl]methyl]-4-azabicyclo[3.1.0]hexane-3-carboxamide]	7.31
O=C(NCc1cccc(OCc2ccc(C(F)(F)F)cc2)c1)[C@@H]1CCCCN1S(=O)(=O)c1ccc(F)cc1 [Example 175, (2S)-1-(4-fluorophenyl)sulfonyl-N-[[3-[[4-(trifluoromethyl)phenyl]methoxy]phenyl]methyl]piperidine-2-carboxamide]	6.11
O=C(NCc1cccc(OCc2ccc(C(F)(F)F)cc2)c1)[C@@H]1CCCN1S(=O)(=O)c1ccco1 [Example 176, (2S)-1-(2-furylsulfonyl)-N-[[3-[[4-(trifluoromethyl)phenyl]methoxy]phenyl]methyl]pyrrolidine-2-carboxamide]	7.44
O=C(NCc1cccc(OCc2ccc(C(F)(F)F)cc2)c1)[C@@H]1CCCN1S(=O)(=O)c1ccoc1 [Example 177, (2S)-1-(3-furylsulfonyl)-N-[[3-[[4-(trifluoromethyl)phenyl]methoxy]phenyl]methyl]pyrrolidine-2-carboxamide]	7.57
O=C(NCc1cccc(OCc2ccc(C(F)(F)F)cc2)c1)[C@@H]1CCCN1S(=O)(=O)c1ccsc1 [Example 178, (2S)-1-(3-thienylsulfonyl)-N-[[3-[[4-(trifluoromethyl)phenyl]methoxy]phenyl]methyl]pyrrolidine-2-carboxamide]	8.07
O=C(NCc1cccc(OCc2ccc(C(F)(F)F)cc2)c1)[C@@H]1[C@@H](O)CCN1S(=O)(=O)c1ccco1 [Example 179, (2S,3S)-1-(2-furylsulfonyl)-3-hydroxy-N-[[3-[[4-(trifluoromethyl)phenyl]methoxy]phenyl]methyl]pyrrolidine-2-carboxamide]	6.22
O=C(NCc1cccc(OCc2ccc(C(F)(F)F)cc2)c1)[C@@H]1C[C@@H](O)CN1S(=O)(=O)c1ccco1 [Example 180, (2S,4R)-1-(2-furylsulfonyl)-4-hydroxy-N-[[3-[[4-(trifluoromethyl)phenyl]methoxy]phenyl]methyl]pyrrolidine-2-carboxamide]	5.89
O=C(NCc1cccc(OCc2ccccc2)c1)[C@@H]1CCCN1S(=O)(=O)c1ccco1 [Example 181, (2S)-N-[(3-benzyloxyphenyl)methyl]-1-(2-furylsulfonyl)pyrrolidine-2-carboxamide]	7.00
O=C(NCc1cccc(OCc2ccccc2)c1)[C@@H]1C=CCN1S(=O)(=O)c1ccco1 [Example 182, (2S)-N-[(3-benzyloxyphenyl)methyl]-1-(2-furylsulfonyl)-2,5-dihydropyrrole-2-carboxamide]	7.08
O=C(NCc1cccc(Oc2ccc(C(F)(F)F)cc2)c1)[C@@H]1CCCN1S(=O)(=O)c1nccs1 [Example 183, (2S)-1-thiazol-2-ylsulfonyl-N-[[3-[4-(trifluoromethyl)phenoxy]phenyl]methyl]pyrrolidine-2-carboxamide]	5.48
O=C(NCc1cccc(OCc2ccc(C(F)(F)F)cc2)c1)[C@@H]1CCCN1S(=O)(=O)c1nccs1 [Example 184, (2S)-1-thiazol-2-ylsulfonyl-N-[[3-[[4-(trifluoromethyl)phenyl]methoxy]phenyl]methyl]pyrrolidine-2-carboxamide]	6.01
N#Cc1ccc(S(=O)(=O)N2CCC[C@H]2C(=O)NCc2cccc(OCc3ccc(C(F)(F)F)cc3)c2)cc1 [Example 185, (2S)-1-(4-cyanophenyl)sulfonyl-N-[[3-[[4-(trifluoromethyl)phenyl]methoxy]phenyl]methyl]pyrrolidine-2-carboxamide]	6.62
O=C(NCc1cccc(Oc2ccc(C(F)(F)F)cc2)c1)[C@@H]1CCCN1S(=O)(=O)c1cccc(F)c1 [Example 186, (2S)-1-(3-fluorophenyl)sulfonyl-N-[[3-[4-(trifluoromethyl)phenoxy]phenyl]methyl]pyrrolidine-2-carboxamide]	7.15
